Two compounds from paper PMC13401508 (Pharmacological research, 2026) can be followed below.

Each structure is given as a SMILES string.

One series deals with RM1-BM-Luc cells. Nature of the series: Combination and survival study, RM1-BM-Luc syngeneic model. The series is classed as in vivo, C57BL/6 mice. Conditions: RM1-BM-Luc in C57BL/6, day 14, IVMT-Rx-4 30 mg/kg and/or Docetaxel 5 mg/kg 3X a week for two weeks. On the procedure:
(§1) Both syngeneic (C57BL/6) and athymic nude mice were used for survival studies. Tumor cells (RM1-BM-Luc or PC3-ML-Luc) were injected intracardially in a cohort of 40 animals. […] In the combination groups, both regimens were administered 3X a week for two-weeks at the same dose as a single therapy. Animals were imaged periodically and maintained until euthanization was required.
(§2) Fig. 5. […] A and B) RM1-BM-Luc (A) or PC3-ML-Luc (B) cells were implanted I.C. in C57BL/6 and athymic nude mice, respectively. […] BLI images were used to detect bone metastases (the percentage incidence of bone metastases in animals was calculated at a single time point, day 14). Values are presented at the bottom panel of the respective group (red, number of animals positive for metastasis and black, total number of experimental animals). C and D) Animals were kept until mandated euthanasia based on IACUC guidelines, considered as disease associated death. The Kaplan–Meier survival curves were generated using GraphPad in both models as described in (A) and (B), respectively. E and F) Log-rank test was performed and values between different experimental groups are presented.

The subject of a further series is PC3-ML-Luc cells. Nature of the series: Combination and survival study, PC3-ML-Luc model. It counts as in vivo. Conditions: PC3-ML-Luc in athymic nude mice, day 14, IVMT-Rx-4 30 mg/kg and/or Docetaxel 5 mg/kg 3X a week for two weeks. On the procedure: as §1, §2
Series [1] in a line: Thermodynamic solubility in PBS, pH 7.4. It counts as physicochemical.
The subject of the next series is Caco-2 cell monolayer. Nature of the series: Caco-2 bidirectional permeability. The series is classed as in vitro ADME. How it is done: To prepare the Caco-2 cell monolayer, 50 µL and 25 µL of cell culture medium (Dulbecco’s modified Eagle’s medium, DMEM) were added to each well of the inserts and reservoir, respectively, within a 96-well HTS Transwell plate (Corning, NY, USA). The plate was incubated at 37 °C and 5% CO2 for 1 hr. prior to cell seeding. Caco-2 cells were then diluted to 6.86 x 10^5 cells/mL using culture medium and 50 µL of cell suspension were seeded into the plate, and incubated at 37 °C, 5% CO2, and 95% relative humidity for 14-18 days. During this time, the cells were cultivated with media replacements occurring every other day. Cells were allowed to grow and differentiate and the integrity of the Caco-2 cell monolayer was evaluated by measurement of transepithelial electrical resistance (TEER) using a Millicell Epithelial Volt-Ohm measuring system (Millipore, USA).
Prior to the assay, the established monolayer was washed twice with pre-warmed HBSS and incubated at 37 °C for 30 minutes. A bidirectional permeability assay was performed simultaneously using two different plates as described previously (Supplementary Reference: Cui Y, Desevaux C, Truebenbach I, Sieger P, Klinder K, Long A, Sauer A. A Bidirectional Permeability Assay for beyond Rule of 5 Compounds. Pharmaceutics. 2021 Jul 27;13(8):1146. doi: 10.3390/pharmaceutics13081146. PMID: 34452112; PMCID: PMC8400635.): one assessed permeability from the apical to the basolateral side, while the other assessed from the basolateral to the apical side. […] For apical to basolateral permeability, 108 µL of working solution was loaded into the apical compartment, whereas 308 µL of working solution was added to the basolateral compartment for basolateral to apical permeability. The samples collected from donor and receiver compartment were mixed with 72 µL transport buffer and 240 µL of acetonitrile containing internal standard (IS, 100 nM alprazolam, 200 nM Caffeine and 100 nM tolbutamide), centrifuged at 1000 rpm for 10 minutes. […] In doing so, the following equations were used: […]
Where, Papp is apparent permeability (cm/s x 10^-6), dQ/dt is the rate of drug transport (pmol/second), A is the surface area of the membrane (cm^2), and D0 is the initial donor concentration (nM; pmol/cm^3). (B-A) indicates basolateral to apical permeation, where (A-B) indicates apical to basolateral.
(In general: Caco-2 cells form a polarised layer with tight junctions and transporters.)

Series [2] can be described thus: Log D by shake flask (pH 7.4). It counts as physicochemical. Conditions: pH 7.4, octanol/phosphate buffer. How it is done:
Sodium Phosphate buffer pH 7.4 (10 mM) was used as the aqueous phase and octanol was used as the organic phase. […] The sealed plate was incubated at 25 °C with continuous agitation at 2000 rpm for 2 hrs. Samples were then separated by centrifugation, diluted 100-fold with a mixture of H20 and acetonitrile containing internal standard, and analyzed via LC-MS/MS. The Log D value was calculated using the following equation: […]

Another series addresses T1, PXR (Homo sapiens, UniProt O75469).
T1 construct: expressed in transfected cells; host or cells: DPX2 cells
T1 sequence (O75469 1-434): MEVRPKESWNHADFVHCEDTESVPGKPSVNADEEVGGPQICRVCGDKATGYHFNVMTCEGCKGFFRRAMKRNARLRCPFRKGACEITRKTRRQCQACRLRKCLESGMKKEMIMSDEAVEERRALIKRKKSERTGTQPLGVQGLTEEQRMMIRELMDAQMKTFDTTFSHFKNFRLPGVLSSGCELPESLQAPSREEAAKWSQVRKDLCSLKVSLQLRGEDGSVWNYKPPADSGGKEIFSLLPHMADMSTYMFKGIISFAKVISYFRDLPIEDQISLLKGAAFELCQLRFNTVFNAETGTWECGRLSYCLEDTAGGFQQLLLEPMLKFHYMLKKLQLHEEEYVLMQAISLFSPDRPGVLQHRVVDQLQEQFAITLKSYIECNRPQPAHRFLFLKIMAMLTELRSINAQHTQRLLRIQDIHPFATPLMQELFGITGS
Nature of the series: PXR assay using DPX2 cells. It counts as cell-based. On the procedure:
DPX2 cells were initially cultured in T-75 flasks and maintained at 37°C in a humidified incubator with 5% CO2 and 95% relative humidity. Cells were allowed to reach 70-80% confluence prior to subculture. Next, cells were transferred to a culture plate and incubated for an additional 24 hours to allow for attachment and recovery prior to treatment. […] Cell viability and luciferase activity were measured using the CellTiter-Fluor™ Cell Viability Assay and One-GloTM Luciferase Assay System, respectively. Luciferase activity was normalized to viable number and fold activation of PXR was calculated using the following equation: […]

For series [3], the system named is HS5, RWPE-1, C4–2B, PC3-ML, ARCaP-M and RM1-BM cells. Nature of the series: Colony formation (clonal) assay. It counts as cell-based, human and murine. The note with it: 50 μM, six repeated doses over a two-week period, tumor and non-tumor cells. On the procedure: 200 cells/well were seeded in triplicate in 6-well plates. […] The colonies were fixed with ice-cold Methanol and stained with 0.5% crystal violet and counted.
Fig. 1. Primary characterization of IVMT-Rx-4. A) Chemical structure (upper panel) and synthesis scheme (lower panel). […] All proteins were extracted, and Western blotting was performed immediately after heating. Quantifications were obtained in the absence (control) or presence of IVMT-Rx-4 and values are presented as percentage of RT (room temperature) normalized for the experimental groups (control, IVMT-Rx-4). SOD (Superoxide dismutase) was used as an endogenous control. […] Colonies were stained with crystal violet and counted (n = 3 ± SD; ns: non-significant). […] Invaded cells were stained with crystal violet. Top panel: representative photograph of invaded cells under different experimental settings. Bottom panel: graphical representation of number of invaded cells/field for different cell lines (n = 3 ± SD; * p < 0.05).

Series [4] deals with Salmonella typhimurium TA98 & TA100. Nature of the series: Mini-Ames assay. The series is classed as cell-based. On the procedure:
The mini-AMES assay was performed in Pharmaron, Inc. following the standard protocol as developed by the in-house scientist. […] The assay was conducted in the presence or absence of the S9 mix along with concurrent negative/solvent control and positive controls.
A general note: In the Ames test, an excess of revertant colonies over the control signals mutagenicity.

The next series concerns the target T2, CYP3A4 (Homo sapiens, UniProt P08684).
T2 construct: in the presence of human liver microsomes; from tissue; host or cells: human liver microsomes
Nature of the series: Time dependent CYP inhibition (TDI). It counts as in vitro ADME. Conditions: human liver microsomes, with or without NADPH. How it is done: Then, the specific CYP3A4 substrate was added, and aliquots were collected at various time points. Samples were then diluted with ultra-pure water and analyzed by LC-MS/MS. Area ratio and remaining Activity (%) were calculated as above and IC50 values was calculated using Excel XLfit 5.3.1.3.

Series [5] can be described thus: Stability in liver microsomes with NADPH and UDPGA. The series is classed as in vitro ADME. The note with it: all species (human, monkey, dog, rat, mouse), NADPH and UDPGA added. How it is done: Test samples were incubated at 37 °C, and Verapamil was used as a positive control. Samples were drawn from the incubation solution at different timepoints, centrifuged, then diluted with ultra-pure H20 and analyzed via LC-MS/MS. The natural logarithm of the remaining parent drug at each timepoint was plotted against incubation time, and the following equation was used to calculate the in vitro half-life:
in vitro t1/2 = -(0.693/k), where k is the rate constant.
For orientation: Liver microsomes are a subcellular fraction often used to study metabolism.

T2 sequence (P08684 whole entry): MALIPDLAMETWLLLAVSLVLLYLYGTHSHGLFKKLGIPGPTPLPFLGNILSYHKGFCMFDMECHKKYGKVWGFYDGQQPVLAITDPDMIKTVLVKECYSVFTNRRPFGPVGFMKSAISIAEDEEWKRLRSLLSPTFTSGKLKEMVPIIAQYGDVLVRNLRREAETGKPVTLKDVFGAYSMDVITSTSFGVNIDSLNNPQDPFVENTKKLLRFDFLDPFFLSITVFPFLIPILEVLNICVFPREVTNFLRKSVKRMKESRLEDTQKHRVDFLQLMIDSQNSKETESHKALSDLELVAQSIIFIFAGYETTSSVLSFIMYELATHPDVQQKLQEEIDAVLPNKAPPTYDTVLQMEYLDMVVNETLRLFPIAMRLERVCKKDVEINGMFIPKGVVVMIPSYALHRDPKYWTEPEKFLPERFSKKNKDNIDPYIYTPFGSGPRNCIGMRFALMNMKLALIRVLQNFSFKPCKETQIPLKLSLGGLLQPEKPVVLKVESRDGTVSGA

`CC(=O)O[C@@]12CO[C@@H]1C[C@H](O)[C@@]1(C)C(=O)[C@H](O)C3=C(C)[C@@H](OC(=O)[C@H](O)[C@@H](NC(=O)OC(C)(C)C)c4ccccc4)C[C@@](O)([C@@H](OC(=O)c4ccccc4)[C@H]21)C3(C)C` [Docetaxel, reference compound]: the “bone metastases, Incident/Total number tested” value in the series with RM1-BM-Luc cells was 5/8; in the series with PC3-ML-Luc cells it was 3/8.
Turning to `Cc1cc(NC(=O)c2nc3nc4c(c(=O)n3[nH]2)CCC4)c(C)cc1NC(=O)CCc1nnc(-c2ccccc2)o1` [PDZ1i, reference compound], in [1], the “Thermodynamic solubility in PBS, pH 7.4” value is listed as 10 mg/ML. Further, the “Caco-2 Efflux ratio” value with Caco-2 cell monolayer (B-A/A-B) is 300. The “Caco-2 Bidirectional A-B” value with Caco-2 cell monolayer (apical to basolateral, 10 µM) worked out at 0.04 ×10⁻⁶ cm/s. The “Caco-2 Bidirectional B-A” value with Caco-2 cell monolayer (basolateral to apical, 10 µM) was determined as 11.5 ×10⁻⁶ cm/s. The “Log D by shake flask (pH 7.4)” value in series [2] turned out to be 0.5. For the same compound, the PXR assay entry on PXR is on record as “No induction”. For the same compound, the “cell proliferation (colony formation)” value in series [3] is “did not inhibit cell proliferation”. Moreover, in series [4], the “Mini-Ames Assay (2-strain option: TA98 & TA100)” value was “Negative”. Moreover, at CYP3A4, the “Time-dependent inhibition (TDI), CYP3A4” value is recorded as “No TDI”. Also, the “t½ in liver microsomes” value in series [5] is listed as “Minimal degradation: > 4 hr t½ in all species”.
